These are literature values, as cited in patent US20160338997A1, “KELOID REDUCTION USING TOPICAL ALLANTOIN” (Scioderm, Inc., priority 2013, published 2016).

The conditions of the series: emulsion pH 6.8 to 7.5; with time and in accelerated stability tests at 40° C.

Consider `NC(=O)NC1NC(=O)NC1=O` (stereo not shown) [allantoin], for which the degradation of allantoin result is reported as “degrades significantly”.
